From PubChem BioAssay (NCI) come the findings set out here.

What all share (experiment): inhibition of tumour cell growth, NCI panel, 48 h
Test [1] concerns A498 renal.
Test [2] has as its system HOP-92 NSCLC.
The subject of test [3] is KM12 colon.
Test [4] has as its system M14 melanoma.
Test [5] has as its system OVCAR-8 ovarian.
For test [6], the system named is SF-268 CNS.
Test [7] relates to TK-10 renal.
Test [8] concerns U251 CNS.
Test [9] deals with MDA-MB-435.
The test system of test [10] is SNB-19 CNS.

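Cultured in 96-well plates, cells were exposed to test compound for 48 hours across five concentrations. TGI: concentration producing complete growth inhibition.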

Consider `Cc1ccc(Sc2ccccc2[N+](=O)[O-])cc1`, for which the TGI in test [1] is greater than 100 µM; in [2] it was 59.2 µM; in test [3], greater than 100 µM; in test [4] it was greater than 100 µM; in test [5], greater than 100 µM; in test [6], greater than 100 µM. Further, the TGI was greater than 100 µM in [7] and 61.7 µM in test [8].

With `Cc1ccnc2nc(N)ccc12`, the TGI in [1], in [3], in test [4], in test [9], in test [5] and in [6] was greater than 100 µM each time. The TGI in test [10], in test [7] and in [8] was greater than 100 µM each time.

As for `Cc1cccc2c1c1ccc3c(c1n2C)C(=O)C=CC3=O`, the TGI in test [1] was found to be 44.5 µM; in test [2], 4.34 µM; in [3], 28.6 µM; in [4], 17.9 µM; in test [5] it was 32.1 µM; in [6], 36.5 µM. Also, the TGI in test [10] was 32.3 µM; in test [7] it was 7.19 µM; in test [8] it was 25.8 µM.

With `O=C1Nc2cc([N+](=O)[O-])c(Br)cc2C1=O`, the TGI in test [1] is greater than 100 µM; in test [2], 43.1 µM; in [3], greater than 100 µM; in test [4] it was 30.1 µM; in [5], 31.6 µM; in test [6] it was 44.1 µM. This compound also came in with a TGI in [7] greater than 100 µM.

Consider `COc1cc(C2C(Cl)C(=O)N2NC(=O)c2ccc(NC(C)=O)cc2)ccc1O` (stereo not drawn), for which the TGI in test [1], in test [2], in [4], in test [5], in [6] and in test [10] was greater than 100 µM each time. Besides, the TGI in test [7] and in test [8] was greater than 100 µM in each case.

Consider `Cc1cccc2nc3c(=O)[nH]c(=O)nc-3n(C)c12`, for which the TGI in test [3] is greater than 100 µM; in test [4], greater than 100 µM; in test [9] it was 34.1 µM; in test [5] it was greater than 100 µM; in test [6], greater than 100 µM; in test [10] it was greater than 100 µM. For the same compound, the TGI in test [7] and in test [8] was greater than 100 µM throughout.

Take `CC(C)OP(=O)(OC(C)C)C1=NN(c2ccc([N+](=O)[O-])cc2)C(P(=O)(OC(C)C)OC(C)C)=NN1c1ccc([N+](=O)[O-])cc1`: the TGI in test [2], in test [3], in test [4], in test [5], in [6] and in [10] was greater than 100 µM in each case. For the same compound, the TGI in [7] and in [8] was greater than 100 µM in each case.

On to `CCOC(=O)c1cc2c(OCc3ccccc3)c(OC)cc3c2c(n1)N(c1ccc(OC)cc1)C(C)C3` (stereo not drawn), for which the TGI in test [1] was greater than 50 µM; in test [2], 42.9 µM; in [4], greater than 50 µM; in [5], greater than 50 µM; in test [6], greater than 50 µM; in test [10] it was greater than 50 µM. Further, the TGI in test [7] and in [8] was greater than 50 µM throughout.

Take `CC(=O)OC1C2CCC3C(C)(O)C4CC(O)C(C)(C)C4(O)C(O)CC13CC2(C)O` (stereo not drawn): the TGI in test [1], in [2], in test [3], in test [4], in test [5] and in test [6] was greater than 100 µM in each case. For the same compound, the TGI in test [10] and in test [7] was greater than 100 µM throughout.

For `Cc1cc(NC(=O)C2C3C=CC(O3)C2C(=O)O)no1` (stereo not drawn), the TGI in [1] was greater than 100 µM; in test [2], greater than 100 µM; in [4] it was greater than 100 µM; in test [5], 32.6 µM; in [6], 51.9 µM; in test [10], greater than 100 µM. The values for the TGI in [7] and in [8] were greater than 100 µM and 53.8 µM, respectively.

For the compound `CCOC(=O)NNC(=O)NCc1ccccc1CNC(=O)NNC(=O)OCC`, the TGI in test [1], in test [3], in test [4], in test [9], in test [5] and in test [6] was greater than 100 µM throughout. Besides, the TGI in test [10], in test [7] and in [8] was greater than 100 µM in each case.

With `COC(=O)[C@@](C)(COC(=O)C(C)(C)C)NC(=O)OC(C)(C)C`, the TGI in test [1], in test [3], in test [4], in test [9], in test [5] and in test [6] was greater than 100 µM each time. For the same compound, the TGI in test [10], in test [7] and in test [8] was greater than 100 µM throughout.

For `CC(=O)NC(CCCCN)C(=O)NCc1ccccc1` (stereo not drawn), the TGI in test [1], in [2], in [3], in test [4], in test [5] and in [6] was greater than 100 µM throughout. The TGI in [10], in [7] and in test [8] was greater than 100 µM each time.

Regarding `CCOC(=O)C(C)Sc1nnc(COc2ccccc2OC)n1-c1ccccc1` (stereo not drawn), the TGI in test [1], in [2], in [3], in [4], in test [5] and in test [6] was greater than 100 µM throughout. The TGI in test [10], in test [7] and in test [8] was greater than 100 µM each time.

Regarding `O=C1CC(C(CC(=O)c2ccccc2)c2ccccc2)C(=O)c2ccccc2N1` (stereo not drawn), the TGI in test [1], in [3], in [4], in test [9], in test [5] and in [6] was greater than 100 µM each time. Moreover, the TGI in test [10] and in test [8] was greater than 100 µM each time.

`Cc1cn(C2CC(CCCO)C(CO)O2)c(=O)[nH]c1=O` (stereo not drawn): the TGI in test [1], in [3], in test [4], in test [5], in test [6] and in test [10] was greater than 100 µM throughout. Besides, the TGI in test [7] and in test [8] was greater than 100 µM throughout.
